Laboratory results from patent publication US20240041042A1, “1-(PYRIDYL)-5-AZINYLPYRAZOLE DERIVATIVES, AND THEIR USE FOR CONTROL OF UNDESIRED PLANT GROWTH” (Bayer Aktiengesellschaft, priority 2020, published 2024).

Legend:
Type in all cases: in vivo
[1] = test system: Pharbitis purpurea (PHBPU); assay: Pre-emergence herbicidal action against PHBPU
Outline: (§1)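 Greenhouse pot trial: seeds sown, soil-covered, sprayed before emergence with compound in water (0.5% additive; 600 l/ha; ≤320 g/ha). Scoring visual, ~3 weeks, 0–100% scale vs untreated.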

Setaria viridis (SETVI) [2] = assay: Pre-emergence herbicidal action against SETVI
Outline: as §1

[3] = test system: Verconica persica (VERPE); assay: Post-emergence herbicidal action against VERPE
Outline: (§2)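 Doses of 320 g/ha or lower, suffixes a, b and c marking different dosages, were applied post-emergence at the one-leaf stage in 600 l/ha water with 0.5% additive. Damage was assessed visually after about 3 weeks in the greenhouse.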

Lolium rigidum (LOLRI) = assay: Pre-emergence herbicidal action against LOLRI
Outline: as §1

[4] = test system: Polygonum convolvulus (POLCO); assay: Pre-emergence herbicidal action against POLCO
Outline: as §1

Setaria viridis (SETVI) [5] = assay: Post-emergence herbicidal action against SETVI
Outline: as §2

Viola tricolor (VIOTR) = assay: Post-emergence herbicidal action against VIOTR
Outline: as §2

[6] = test system: Abutilon theophrasti (ABUTH); assay: Post-emergence herbicidal action against ABUTH; details: visual rating about 3 weeks after treatment vs untreated controls (100% = plants have died, 0% = like control plants)
Outline: as §2

[7] = test system: Matricaria inodora (MATIN); assay: Pre-emergence herbicidal action against MATIN
Outline: as §1

[8] = test system: Pharbitis purpurea (PHBPU); assay: Post-emergence herbicidal action against PHBPU
Outline: as §2

Structure (SMILES) | Pre-emergence action against PHBPU in % ([1]; dosage 320 g/ha) | Pre-emergence action against SETVI in % (Setaria viridis (SETVI) [2]; dosage 80 g/ha) | Pre-emergence action against SETVI in % (Setaria viridis (SETVI) [2]; dosage 320 g/ha) | Post-emergence action against VERPE in % ([3]; 320 g/ha, VERPE) | Post-emergence action against VERPE in % ([3]; dosage 80 g/ha) | Pre-emergence action against LOLRI in % (Lolium rigidum (LOLRI); dosage 80 g/ha) | Pre-emergence action against LOLRI in % (Lolium rigidum (LOLRI); dosage 320 g/ha) | Pre-emergence action against POLCO in % ([4]; dosage 80 g/ha) | Pre-emergence action against POLCO in % ([4]; dosage 320 g/ha) | Post-emergence action against SETVI in % (Setaria viridis (SETVI) [5]; dosage 80 g/ha) | Post-emergence action against SETVI in % (Setaria viridis (SETVI) [5]; dosage 320 g/ha) | Post-emergence action against VIOTR in % (Viola tricolor (VIOTR); 80 g/ha) | Post-emergence action against VIOTR in % (Viola tricolor (VIOTR); 320 g/ha) | Post-emergence action against ABUTH in % ([6]; 80 g/ha) | Post-emergence action against ABUTH in % ([6]; 320 g/ha) | Pre-emergence action against MATIN in % ([7]; dosage 80 g/ha) | Pre-emergence action against MATIN in % ([7]; dosage 320 g/ha) | Post-emergence action against PHBPU in % ([8]; dosage 80 g/ha) | Post-emergence action against PHBPU in % ([8]; dosage 320 g/ha) | Pre-emergence action against PHBPU in % ([1]; dosage 80 g/ha)
COC(=O)[C@@H](C)Oc1nn(-c2ncccc2F)c(-c2ccc(F)nc2)c1I [Example I-341] | 90% | 80% | 100% | 90% | 90% | 100% | 100% | 90% | 100% | 80% | 80% | 80% | 80% | 80% | 90% | 90% | 100% | 90% | 100% | 
COC(=O)C(C)NC(=O)[C@@H](C)Oc1nn(-c2ccccn2)c(-c2cncc(F)c2)c1Cl (stereo partly drawn) [Example I-199] | 90% | 90% | 100% | 90% | 90% | 100% | 100% | 80% | 90% | 80% | 90% | 80% | 80% |  | 80% | 90% | 100% |  | 80% | 80%
C[C@@H](Oc1nn(-c2ccccn2)c(-c2cncc(F)c2)c1Cl)C(=O)O [Example I-218] | 90% | 90% | 100% | 80% | 80% | 100% | 100% | 90% | 90% | 80% | 80% | 80% | 80% | 80% | 80% | 90% | 100% | 90% | 100% | 90%
COC(=O)[C@@H](C)COC(=O)COc1nn(-c2ccccn2)c(-c2cncc(F)c2)c1Br [Example I-194] | 90% | 90% | 100% | 80% |  | 90% | 100% | 80% | 100% | 90% | 90% | 80% | 80% |  | 80% | 90% | 90% | 90% | 90% | 90%
